The subject of experiment [1] is Plasmodium falciparum. Put plainly: Antiplasmodial activity against asexual blood stage chloroquine-sensitive Plasmodium falciparum 3D7 assessed as parasite growth inhibition at 40 uM by image-based assay relative to control. The class given is functional.
Experiment [2] relates to Plasmodium falciparum. Put plainly: Antiplasmodial activity against asexual blood stage chloroquine-sensitive Plasmodium falciparum 3D7 assessed as parasite growth inhibition by image-based assay. Type of experiment: functional, organism-based.
For experiment [3], the system named is Plasmodium falciparum. Put plainly: Antiplasmodial activity against asexual blood stage chloroquine-sensitive Plasmodium falciparum 3D7 assessed as parasite growth inhibition at 2 uM by image-based assay relative to control. Type of experiment: functional.
The test system of experiment [4] is Plasmodium falciparum. Put plainly: Antiplasmodial activity against Plasmodium falciparum assessed as parasite growth inhibition. Type of experiment: functional, organism-based.

Non-standard residues stand in square brackets, D forms with d. Residues, ends and D or L forms follow the SMILES beside them. 3Amb = NCc1cccc(C(=O)O)c1; 4Abz = Nc1ccc(C(=O)O)cc1; Ava = NCCCCC(=O)O

For orientation: inhibition means the percentage by which the read-out fell short of the control. The term IC50 denotes the concentration needed to halve the response being measured. For the compound `CC[C@H](C)[C@@H]1NC(=O)[C@H]([C@@H](C)O)NC(=O)c2cccc(c2)CNC(=O)[C@H](Cc2ccccc2)NC(=O)CNC(=O)[C@H](Cc2ccccc2)NC(=O)[C@H]([C@@H](C)CC)NC1=O` (cyclo([3Amb]TIIFGF)), in experiment [1], the inhibition at 40 µM is 86%. For the same compound, the IC50 in experiment [2] amounted to 4 µM.

With `CC[C@H](C)[C@@H]1NC(=O)[C@H]([C@@H](C)O)NC(=O)c2ccc(cc2)NC(=O)[C@H](Cc2ccccc2)NC(=O)CNC(=O)[C@H](Cc2ccccc2)NC(=O)[C@H]([C@@H](C)CC)NC1=O` (cyclo([4Abz]TIIFGF)), the inhibition at 40 µM in experiment [1] was 12%.

Take `C[C@@H]1CC[C@H]2[C@@H](C)C(=O)O[C@@H]3O[C@@]4(C)CC[C@@H]1[C@]32OO4` [ARTEMISININ]: the IC50 in experiment [2] worked out at 0.013 µM. Also, the inhibition at 2 µM in experiment [3] is 100%.

Regarding `CC[C@H](C)[C@@H]1NC(=O)[C@H]([C@@H](C)O)NC(=O)CCCCNC(=O)[C@H](Cc2ccccc2)NC(=O)CNC(=O)[C@H](Cc2ccccc2)NC(=O)[C@H]([C@@H](C)CC)NC1=O` (cyclo([Ava]TIIFGF)), the inhibition at 40 µM in experiment [1] is 87%. Moreover, the IC50 in experiment [2] came to 23 µM.

As to `CC(C)C[C@@H]1NC(=O)[C@H](CC(C)C)NC(=O)[C@H](C(C)C)NC(=O)CNC(=O)[C@H](CC(C)C)NC(=O)[C@@H]2CCCN2C(=O)[C@H](Cc2ccc(O)cc2)NC1=O` (cyclo(GVLLYPL)), the 50% inhibitory concentration (IC50) in experiment [4] was determined as 57 µM.

In the case of `CC(C)C[C@@H]1NC(=O)CNC(=O)[C@H](CC(C)C)NC(=O)[C@@H]2CCCN2C(=O)[C@H](Cc2ccc(O)cc2)NC(=O)[C@H](CC(C)C)NC(=O)[C@H](CC(C)C)NC1=O` (cyclo(GLLLYPL)), the half-maximal inhibitory concentration (IC50) in experiment [4] was 25 µM.

As to `CC[C@H](C)[C@@H]1NC(=O)[C@H]([C@@H](C)O)NC(=O)CNC(=O)CNC(=O)[C@H](Cc2ccccc2)NC(=O)CNC(=O)[C@H](Cc2ccccc2)NC(=O)[C@H]([C@@H](C)CC)NC1=O` (cyclo(FGFGGTII)), the inhibition at 40 µM in experiment [1] is 78%. Besides, the IC50 in experiment [2] stood at 25 µM; in experiment [4] it was 16 µM.
